Results published in ChEMBL document CHEMBL1137335, “Multivalent effects of RGD peptides obtained by nanoparticle display” (J Med Chem, 2006).
Positions of bridges follow the written chain, without caps; N, C: chain ends. Residues, ends and D or L forms follow the SMILES beside them. *: point of attachment. 5FAM = O=C1OC2(c3ccc(O)cc3Oc3cc(O)ccc32)c2ccc(C(=O)*)cc21

How the values were obtained:
BT-20 [1] = assay: Level of peptide binding to human BT20 cells indicating presence of integrin alphaVbeta3; type: functional
9L = assay: Level of peptide binding to rat 9L cells indicating presence of integrin alphaVbeta3; type: functional
HUVEC [2] = assay: Uptake in human HUVEC; type: functional, cell-based
HUVEC [3] = assay: Antiadhesive activity against human HUVEC; type: functional, cell-based
BT-20 [4] = assay: Uptake in human BT20 cells; type: functional, cell-based
BT-20 [5] = assay: Antiadhesive activity against human BT20 cells; type: functional, cell-based

EC50 (BT-20 [4]): 1.2 µM
IC50 (BT-20 [5]): 130 µM
Structure (SMILES): NCC(=O)N[C@@H](CO)C(=O)N[C@@H](CO)C(=O)N[C@@H](CCCCNC(=O)c1ccc2c(c1)C(=O)OC21c2ccc(O)cc2Oc2cc(O)ccc21)C(=O)NCC(=O)NCC(=O)NCC(=O)N[C@H]1CSSC[C@@H](C(=O)O)NC(=O)[C@H](CC(=O)O)NC(=O)CNC(=O)[C@H](CCCN=C(N)N)NC1=O (H-GSSK(5FAM)GGGCRGDC-OH; disulfide 8-12)
Activity (BT-20 [1]): 0.82 pmol
Activity (9L): 0.16 pmol
EC50 (HUVEC [2]): 6 µM
IC50 (HUVEC [3]): 0.76 µM
